Read-outs that look alike come from different tables or passages of the source. *1 amine or outer side, *2 acyl side, *3 side chain or, on linkers, in order; H or OH if unused. Where a SMILES comes first, the peptide text is derived from it. Side-chain parts run from the residue outwards. [ ]: non-standard residue; d: D form. The star is where a group is joined. X11 = CCCCCCCCCCCCCCCC(=O)N[C@@H](CCC(=O)NCCCC[C@H](NC(=O)CC[C@H](NC(=O)CC[C@H](NC(=O)CC[C@H](NC(=O)CCC(=O)NCCCOCCOCCOCCCNC(=O)CCC(=O)NCCCOCCOCCOCCCNC(=O)CCC(=O)NCCCOCCOCCOCCCN*)C(=O)O)C(=O)O)C(=O)O)C(N)=O)C(=O)O; γGlu = O=C(O)[C@H](CCC(=O)[*:2])N[*:1]; Stearoyl = CCCCCCCCCCCCCCCCCC(=O)*; Palmitoyl = CCCCCCCCCCCCCCCC(=O)*; Myristoyl = CCCCCCCCCCCCCC(=O)*; αMeK = C[C@](N)(CCCCN)C(=O)O; Nle = CCCC[C@H](N)C(=O)O; AEEA = NCCOCCOCC(=O)O; Aib = CC(C)(N)C(=O)O
Legend:
RXFP1 = biological target: T1, RXFP1 (Homo sapiens, UniProt Q9HBX9); experiment: OVCAR5 cAMP assay (HTRF), RXFP1 agonist activity; format: cell-based; settings: for EC50: OVCAR5 cells, cAMP HTRF, read-out: EC50 (nM), OVCAR 5 cells (cAMP); for Emax: OVCAR-5, maximal cAMP relative to H2-relaxin maximum (100%), read-out: EMax, OVCAR 5 cells (cAMP)
T1 construct: OVCAR5 cells expressing endogenous RXFP1; endogenous in cells; host or cells: OVCAR5 cells
T1 sequence (Q9HBX9 1-757): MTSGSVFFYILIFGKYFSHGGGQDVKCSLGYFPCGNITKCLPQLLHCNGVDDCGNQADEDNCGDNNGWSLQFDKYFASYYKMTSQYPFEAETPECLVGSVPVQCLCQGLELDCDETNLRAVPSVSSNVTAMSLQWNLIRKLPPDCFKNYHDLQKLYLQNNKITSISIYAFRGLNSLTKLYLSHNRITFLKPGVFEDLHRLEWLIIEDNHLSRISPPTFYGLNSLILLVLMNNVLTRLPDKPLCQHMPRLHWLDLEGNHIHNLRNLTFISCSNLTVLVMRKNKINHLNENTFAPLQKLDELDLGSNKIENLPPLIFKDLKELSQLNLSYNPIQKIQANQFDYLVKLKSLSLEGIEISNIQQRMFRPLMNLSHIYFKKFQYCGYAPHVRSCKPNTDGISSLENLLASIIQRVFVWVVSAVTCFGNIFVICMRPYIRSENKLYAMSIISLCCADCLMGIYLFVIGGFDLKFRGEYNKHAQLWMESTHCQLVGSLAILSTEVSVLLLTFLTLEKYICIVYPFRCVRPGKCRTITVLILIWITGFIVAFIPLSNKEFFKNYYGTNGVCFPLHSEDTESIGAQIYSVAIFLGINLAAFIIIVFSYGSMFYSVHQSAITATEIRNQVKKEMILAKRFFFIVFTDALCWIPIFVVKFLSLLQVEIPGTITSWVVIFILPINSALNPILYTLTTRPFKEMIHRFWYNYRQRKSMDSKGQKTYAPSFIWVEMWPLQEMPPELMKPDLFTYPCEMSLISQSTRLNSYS
Method in brief: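 OVCAR5 cells (endogenous RXFP1) pretreated 40 min at 37° C with 1 mM IBMX, then exposed to peptides in serum-free medium for 30 min at 37° C. Lysate cAMP read by HTRF; EC50 from variable-slope sigmoidal fit; Emax as % of H2-relaxin maximal cAMP in same run.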

[1] = Pharmacokinetic (PK) determination after i.v. or s.c. administration to rats; format: in vivo, Sprague Dawley rats; settings: Rat PK; for half-life / Cmax / Tmax / bioavailability: plasma; for half-life: read-out: T½ (converted); for Cmax / Tmax: sc, 3 mg/kg s.c.; for bioavailability: subcutaneous, 3 mg/kg s.c. vs 1 mg/kg i.v., dose-corrected AUC ratio
Description: Prior to the testing of a peptide batch, its purity (HPLC-UV) was determined. Dose was corrected for presence of salts, solvent and purity.
Sprague Dawley rats were dosed with study peptide at a dose of 1 mg/kg intravenously (i.v.) or 3 mg/kg subcutaneously (s.c.) as a solution in PBS (0.2 mg/ml and 0.6 mg/ml respectively).
Plasma samples were analyzed after protein precipitation via liquid chromatography mass spectrometry (LC/MS).
PK parameters and half-life were calculated using Phoenix 64 (WinNonlin 6.4)-Pharsight (Certara™) (non-compartment model). Values below the limit of quantification (BLQ) were replaced by zero for subsequent calculations and PK analysis.
T½: in-vivo half life, time required for test compound plasma concentration to be divided by two during the PK experiment.
C0: Extrapolated test compound plasma concentration at t=0 time point (i.v. route).
Cmax: maximal test compound plasma concentration at the indicated time point (s.c. route).
Tmax: Time point where Cmax is attained.
F %: s.c. vs i.v. bioavailability, dose-corrected area under curve (AUC) s.c. route divided by AUC i.v.

[2] = Sprague Dawley, iv, 1 mg/kg i.v., extrapolated plasma concentration at t=0, read-out: C0
[3] = Sprague Dawley, iv, 1 mg/kg i.v.

CCCCCCCCCCCCCCCCCC(=O)N[C@@H](CCC(=O)N[C@@H](CCC(=O)N[C@@H](CCC(=O)N[C@@H](CCC(=O)NCCCC[C@H](NC(=O)COCCOCCNC(=O)COCCOCCNC(=O)COCCOCCNC(=O)[C@H](CCCCNC(C)=O)NC(=O)[C@H](CCCCN)NC(=O)[C@H](CCCNC(=N)N)NC(=O)[C@](C)(CCCCN)NC(=O)[C@H](CO)NC(=O)[C@H](Cc1c[nH]c2ccccc12)NC(=O)[C@@H](NC(=O)[C@H](CO)NC(=O)[C@H](CCCC)NC(=O)CNC(=O)[C@H](CCC(=O)O)NC(=O)C(C)(C)NC(=O)C(C)(C)NC(=O)[C@@H](NC(=O)[C@H](CCCCNC(C)=O)NC(=O)[C@H](C)NC(=O)[C@H](CCCNC(=N)N)NC(=O)[C@@H](NC(=O)[C@H](CCCCN)NC(=O)[C@H](CCC(=O)O)NC(=O)[C@H](CCCNC(=N)N)NC(=O)CNC(=O)[C@H](CCC(=O)O)NC(=O)[C@H](CC(C)C)NC(C)=O)C(C)C)[C@@H](C)CC)[C@@H](C)O)C(N)=O)C(=O)O)C(=O)O)C(=O)O)C(=O)O [compound 16] (Ac-LEGREKVRAK(Ac)I[Aib][Aib]EG[Nle]STWS[αMeK]RKK(Ac)[AEEA][AEEA][AEEA]K([γGlu-γGlu-γGlu-γGlu-Stearoyl])-NH2)
EC50 (RXFP1): 0.02 nM | Emax (RXFP1): 87% | C0 [1, 2]: 2650 nM | half-life [1, 3]: 3.38 h | Cmax ([1]; Sprague Dawley): 1880 nM | Tmax ([1]; Sprague Dawley): 8 h | bioavailability ([1]; Sprague Dawley): 53%

CCCCCCCCCCCCCCCC(=O)N[C@@H](CCC(=O)N[C@@H](CCC(=O)N[C@@H](CCC(=O)N[C@@H](CCC(=O)NCCCC[C@H](NC(=O)COCCOCCNC(=O)COCCOCCNC(=O)COCCOCCNC(=O)[C@H](CCCCNC(C)=O)NC(=O)[C@H](CCCCN)NC(=O)[C@H](CCCNC(=N)N)NC(=O)[C@](C)(CCCCN)NC(=O)[C@H](CO)NC(=O)[C@H](Cc1c[nH]c2ccccc12)NC(=O)[C@@H](NC(=O)[C@H](CO)NC(=O)[C@H](CCCC)NC(=O)CNC(=O)[C@H](CCC(=O)O)NC(=O)C(C)(C)NC(=O)C(C)(C)NC(=O)[C@@H](NC(=O)[C@H](CCCCNC(C)=O)NC(=O)[C@H](C)NC(=O)[C@H](CCCNC(=N)N)NC(=O)[C@@H](NC(=O)[C@H](CCCCN)NC(=O)[C@H](CCC(=O)O)NC(=O)[C@H](CCCNC(=N)N)NC(=O)CNC(=O)[C@H](CCC(=O)O)NC(=O)[C@H](CC(C)C)NC(C)=O)C(C)C)[C@@H](C)CC)[C@@H](C)O)C(N)=O)C(=O)O)C(=O)O)C(=O)O)C(=O)O [compound 17] (Ac-LEGREKVRAK(Ac)I[Aib][Aib]EG[Nle]STWS[αMeK]RKK(Ac)[AEEA][AEEA][AEEA]K([γGlu-γGlu-γGlu-γGlu-Palmitoyl])-NH2)
EC50 (RXFP1): 0.17 nM | Emax (RXFP1): 95% | C0 [1, 2]: 3500 nM | half-life [1, 3]: 5.8 h | Cmax ([1]; Sprague Dawley): 2400 nM | Tmax ([1]; Sprague Dawley): 8 h | bioavailability ([1]; Sprague Dawley): 73%

CCCCCCCCCCCCCC(=O)N[C@@H](CCC(=O)N[C@@H](CCC(=O)N[C@@H](CCC(=O)N[C@@H](CCC(=O)NCCCC[C@H](NC(=O)COCCOCCNC(=O)COCCOCCNC(=O)COCCOCCNC(=O)COCCOCCNC(=O)[C@H](CCCCNC(C)=O)NC(=O)[C@H](C)NC(=O)[C@H](CCCNC(=N)N)NC(=O)[C@](C)(CCCCN)NC(=O)[C@H](CO)NC(=O)[C@H](Cc1ccccc1)NC(=O)[C@@H](NC(=O)[C@H](CO)NC(=O)[C@H](CCC(N)=O)NC(=O)CNC(=O)[C@H](CCC(=O)O)NC(=O)C(C)(C)NC(=O)C(C)(C)NC(=O)[C@@H](NC(=O)[C@H](CCCCNC(C)=O)NC(=O)[C@H](C)NC(=O)[C@H](CCCNC(=N)N)NC(=O)[C@@H](NC(=O)[C@H](CCCCN)NC(=O)[C@H](CCC(=O)O)NC(=O)[C@H](CCCNC(=N)N)NC(=O)CNC(=O)[C@H](CCC(=O)O)NC(=O)[C@H](CC(C)C)NC(C)=O)C(C)C)[C@@H](C)CC)[C@@H](C)O)C(N)=O)C(=O)O)C(=O)O)C(=O)O)C(=O)O [compound 190] (Ac-LEGREKVRAK(Ac)I[Aib][Aib]EGQSTFS[αMeK]RAK(Ac)[AEEA][AEEA][AEEA][AEEA]K([γGlu-γGlu-γGlu-γGlu-Myristoyl])-NH2)
Emax (RXFP1): 93%

CCCCCCCCCCCCCCCC(=O)N[C@@H](CCC(=O)N[C@@H](CCC(=O)N[C@@H](CCC(=O)N[C@@H](CCC(=O)NCCOCCOCC(=O)NCCOCCOCC(=O)NCCOCCOCC(=O)NCCOCCOCC(=O)NCCCC[C@H](NC(=O)[C@H](CCCCNC(C)=O)NC(=O)[C@H](C)NC(=O)[C@H](CCCNC(=N)N)NC(=O)[C@](C)(CCCCN)NC(=O)[C@H](CO)NC(=O)[C@H](Cc1ccccc1)NC(=O)[C@@H](NC(=O)[C@H](CO)NC(=O)[C@H](CCC(N)=O)NC(=O)CNC(=O)[C@H](CCC(=O)O)NC(=O)C(C)(C)NC(=O)C(C)(C)NC(=O)[C@@H](NC(=O)[C@H](CCCCNC(C)=O)NC(=O)[C@H](C)NC(=O)[C@H](CCCNC(=N)N)NC(=O)[C@@H](NC(=O)[C@H](CCCCN)NC(=O)[C@H](CCC(=O)O)NC(=O)[C@H](CCCNC(=N)N)NC(=O)CNC(=O)[C@H](CCC(=O)O)NC(=O)[C@H](CC(C)C)NC(C)=O)C(C)C)[C@@H](C)CC)[C@@H](C)O)C(N)=O)C(=O)O)C(=O)O)C(=O)O)C(=O)O [compound 191] (Ac-LEGREKVRAK(Ac)I[Aib][Aib]EGQSTFS[αMeK]RAK(Ac)K([AEEA-AEEA-AEEA-AEEA-γGlu-γGlu-γGlu-γGlu-Palmitoyl])-NH2)
EC50 (RXFP1): 0.17 nM | Emax (RXFP1): 93%

CCCCCCCCCCCCCCCC(=O)N[C@@H](CCC(=O)N[C@@H](CCC(=O)N[C@@H](CCC(=O)NCCCC[C@H](NC(=O)COCCOCCNC(=O)COCCOCCNC(=O)COCCOCCNC(=O)COCCOCCNC(=O)[C@H](CCCCNC(C)=O)NC(=O)[C@H](C)NC(=O)[C@H](CCCNC(=N)N)NC(=O)[C@](C)(CCCCN)NC(=O)[C@H](CO)NC(=O)[C@H](Cc1ccccc1)NC(=O)[C@@H](NC(=O)[C@H](CO)NC(=O)[C@H](CCCC)NC(=O)CNC(=O)[C@H](CCC(=O)O)NC(=O)C(C)(C)NC(=O)C(C)(C)NC(=O)[C@@H](NC(=O)[C@H](CCCCNC(C)=O)NC(=O)[C@H](C)NC(=O)[C@H](CCCNC(=N)N)NC(=O)[C@@H](NC(=O)[C@H](CCCCN)NC(=O)[C@H](CCC(=O)O)NC(=O)[C@H](CCCNC(=N)N)NC(=O)CNC(=O)[C@H](CCC(=O)O)NC(=O)[C@H](CC(C)C)NC(C)=O)C(C)C)[C@@H](C)CC)[C@@H](C)O)C(N)=O)C(=O)O)C(=O)O)C(=O)O [compound 192] (Ac-LEGREKVRAK(Ac)I[Aib][Aib]EG[Nle]STFS[αMeK]RAK(Ac)[AEEA][AEEA][AEEA][AEEA]K([γGlu-γGlu-γGlu-Palmitoyl])-NH2)
Emax (RXFP1): 91%

CCCCCCCCCCCCCCCC(=O)N[C@@H](CCC(=O)NCCCC[C@H](NC(=O)CC[C@H](NC(=O)CC[C@H](NC(=O)CC[C@H](NC(=O)CCC(=O)NCCCOCCOCCOCCCNC(=O)CCC(=O)NCCCOCCOCCOCCCNC(=O)CCC(=O)NCCCOCCOCCOCCCNC(=O)[C@H](CCCCNC(C)=O)NC(=O)[C@H](C)NC(=O)[C@H](CCCNC(=N)N)NC(=O)[C@](C)(CCCCN)NC(=O)[C@H](CO)NC(=O)[C@H](Cc1ccccc1)NC(=O)[C@@H](NC(=O)[C@H](CO)NC(=O)[C@H](CCCC)NC(=O)CNC(=O)[C@H](CCC(=O)O)NC(=O)C(C)(C)NC(=O)C(C)(C)NC(=O)[C@@H](NC(=O)[C@H](CCCCNC(C)=O)NC(=O)[C@H](C)NC(=O)[C@H](CCCNC(=N)N)NC(=O)[C@@H](NC(=O)[C@H](CCCCN)NC(=O)[C@H](CCC(=O)O)NC(=O)[C@H](CCCNC(=N)N)NC(=O)CNC(=O)[C@H](CCC(=O)O)NC(=O)[C@H](CC(C)C)NC(C)=O)C(C)C)[C@@H](C)CC)[C@@H](C)O)C(=O)O)C(=O)O)C(=O)O)C(N)=O)C(=O)O [compound 193] (Ac-LEGREKVRAK(Ac)I[Aib][Aib]EG[Nle]STFS[αMeK]RAK(Ac)-X11)
EC50 (RXFP1): 0.2 nM | Emax (RXFP1): 100%

H2-Relaxin: 6-kDa peptidic hormone of 53 amino acids; chain A (SEQ ID NO: 194) and chain B (SEQ ID NO: 195) cross-linked by disulfide bonds
T½ (in-vivo half life) ([1]; 1 mg/kg i.v.): 0.46 h | C0 ([1]; 1 mg/kg i.v., read-out: C0 (extrapolated plasma concentration at t=0)): 870 nM
